Laboratory results published in patent US20150105252A1, “SUBSTITUTED PYRAZOLES AS HERBICIDES” (E I DU PONT DE NEMOURS AND COMPANY, priority 2013, published 2015).

Assays:
[1] = tested on: bromegrass, downy; test: Test D preemergence; assay type: in vivo, Bromus tectorum; conditions: for Plant response rating, Bromegrass, Downy: Preemergence, scale 0 to 100
How it was run: (§1)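 Preemergence: seeds sown in silt loam and sprayed with compounds in a non-phytotoxic solvent with surfactant; postemergence: plants at 2 to 18 cm (1- to 4-leaf stage) in peat-based medium treated likewise. After 14 to 21 days in controlled growth conditions, injury rated visually versus controls on 0 (no effect) to 100 (complete control) scale.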

[2] = tested on: chickweed; test: Test D postemergence; assay type: in vivo, Stellaria media; conditions: scale 0 to 100
How it was run: as §1

[3] = tested on: barley, spring; test: Test D postemergence; assay type: in vivo, Hordeum vulgare; conditions: scale 0 to 100
How it was run: as §1

[4] = tested on: barley, winter; test: Test D postemergence; assay type: in vivo, Hordeum vulgare; conditions: scale 0 to 100
How it was run: as §1

[5] = tested on: galium; test: Test D preemergence; assay type: in vivo, Galium aparine; conditions: for Plant response rating, Galium: Preemergence, scale 0 to 100
How it was run: as §1

[6] = tested on: kochia; test: Test D postemergence; assay type: in vivo, Kochia scoparia; conditions: scale 0 to 100
How it was run: as §1

[7] = tested on: blackgrass; test: Test D preemergence; assay type: in vivo, Alopecurus myosuroides; conditions: for Plant response rating, Blackgrass: Preemergence, scale 0 to 100
How it was run: as §1

[8] = tested on: wheat, spring; test: Test D preemergence; assay type: in vivo, Triticum aestivum; conditions: for Plant response rating, Wheat, Spring: Preemergence, scale 0 to 100
How it was run: as §1

[9] = tested on: wheat, winter; test: Test D preemergence; assay type: in vivo, Triticum aestivum; conditions: for Plant response rating, Wheat, Winter: Preemergence, scale 0 to 100
How it was run: as §1

[10] = tested on: oilseed rape; test: Test D preemergence; assay type: in vivo, Brassica napus; conditions: for Plant response rating, Oilseed Rape: Preemergence, scale 0 to 100
How it was run: as §1

[11] = tested on: lambsquarters; test: Test D preemergence; assay type: in vivo, Chenopodium album; conditions: for Plant response rating, Lambsquarters: Preemergence, scale 0 to 100
How it was run: as §1

[12] = tested on: kochia; test: Test D preemergence; assay type: in vivo, Kochia scoparia; conditions: for Plant response rating, Kochia: Preemergence, scale 0 to 100
How it was run: as §1

[13] = tested on: field poppy; test: Test D preemergence; assay type: in vivo, Papaver rhoeas; conditions: for Plant response rating, Field Poppy: Preemergence, scale 0 to 100
How it was run: as §1

[14] = tested on: ryegrass, Italian; test: Test D postemergence; assay type: in vivo, Lolium multiflorum; conditions: scale 0 to 100
How it was run: as §1

[15] = tested on: field poppy; test: Test D postemergence; assay type: in vivo, Papaver rhoeas; conditions: scale 0 to 100
How it was run: as §1

[16] = tested on: speedwell; test: Test D postemergence; assay type: in vivo, Veronica persica; conditions: scale 0 to 100
How it was run: as §1

[17] = tested on: oilseed rape; test: Test D postemergence; assay type: in vivo, Brassica napus; conditions: scale 0 to 100
How it was run: as §1

[18] = tested on: windgrass; test: Test D preemergence; assay type: in vivo, Apera spica-venti; conditions: for Plant response rating, Windgrass: Preemergence, scale 0 to 100
How it was run: as §1

[19] = tested on: radish, wild; test: Test D preemergence; assay type: in vivo, Raphanus raphanistrum; conditions: for Plant response rating, Radish, Wild: Preemergence, scale 0 to 100
How it was run: as §1

[20] = tested on: canarygrass; test: Test D postemergence; assay type: in vivo, Phalaris minor; conditions: scale 0 to 100
How it was run: as §1

[21] = tested on: chickweed; test: Test D preemergence; assay type: in vivo, Stellaria media; conditions: for Plant response rating, Chickweed: Preemergence, scale 0 to 100
How it was run: as §1

[22] = 16 g ai/ha, taken as preemergence

SMILES: CCc1cc(C(=O)NOC(C)C)nn1Cc1cccc(OC(F)(F)F)c1 [Compound 70]
- Plant response rating (scale 0 to 100), Bromegrass, Downy [1, 22]: 0
- Plant response rating, Bromegrass, Downy ([1]; 31 g ai/ha): 0
- Plant response rating, Bromegrass, Downy ([1]; 62 g ai/ha): 0
- Plant response rating, Bromegrass, Downy ([1]; 125 g ai/ha): 10
- Plant response rating, Bromegrass, Downy ([1]; 250 g ai/ha): 20
- Plant response rating, Chickweed ([2]; Postemergence, 16 g ai/ha): 30
- Chickweed plant response rating ([2]; Postemergence, 31 g ai/ha): 30
- Chickweed plant response rating ([2]; Postemergence, 125 g ai/ha): 70
- Chickweed plant response rating ([2]; Postemergence, 250 g ai/ha): 85
- Chickweed plant response rating ([2]; postemergence, 62 g ai/ha): 70
- Barley, Spring plant response rating ([3]; Postemergence, 16 g ai/ha): 0
- Barley, Spring plant response rating ([3]; Postemergence, 31 g ai/ha): 0
- Barley, Spring plant response rating ([3]; Postemergence, 125 g ai/ha): 5
- Barley, Spring plant response rating ([3]; Postemergence, 250 g ai/ha): 5
- Barley, Spring plant response rating ([3]; postemergence, 62 g ai/ha): 0
- Barley, Winter plant response rating ([4]; Postemergence, 16 g ai/ha): 0
- Barley, Winter plant response rating ([4]; Postemergence, 31 g ai/ha): 0
- Barley, Winter plant response rating ([4]; Postemergence, 125 g ai/ha): 5
- Barley, Winter plant response rating ([4]; Postemergence, 250 g ai/ha): 5
- Barley, Winter plant response rating ([4]; postemergence, 62 g ai/ha): 5
- Plant response rating (scale 0 to 100), Galium [5, 22]: 0
- Plant response rating, Galium ([5]; 31 g ai/ha): 0
- Plant response rating, Galium ([5]; 62 g ai/ha): 10
- Plant response rating, Galium ([5]; 250 g ai/ha): 40
- Plant response rating, Kochia ([6]; Postemergence, 16 g ai/ha): 40
- Kochia plant response rating ([6]; Postemergence, 31 g ai/ha): 85
- Kochia plant response rating ([6]; Postemergence, 125 g ai/ha): 98
- Kochia plant response rating ([6]; Postemergence, 250 g ai/ha): 95
- Kochia plant response rating ([6]; postemergence, 62 g ai/ha): 70
- Plant response rating (scale 0 to 100), Blackgrass [7, 22]: 0
- Plant response rating, Blackgrass ([7]; 31 g ai/ha): 0
- Plant response rating, Blackgrass ([7]; 62 g ai/ha): 5
- Plant response rating, Blackgrass ([7]; 125 g ai/ha): 10
- Plant response rating, Blackgrass ([7]; 250 g ai/ha): 30
- Plant response rating (scale 0 to 100), Wheat, Spring [8, 22]: 0
- Plant response rating, Wheat, Spring ([8]; 31 g ai/ha): 0
- Plant response rating, Wheat, Spring ([8]; 62 g ai/ha): 0
- Plant response rating, Wheat, Spring ([8]; 125 g ai/ha): 10
- Plant response rating, Wheat, Spring ([8]; 250 g ai/ha): 20
- Plant response rating (scale 0 to 100), Wheat, Winter [9, 22]: 0
- Plant response rating, Wheat, Winter ([9]; 31 g ai/ha): 0
- Plant response rating, Wheat, Winter ([9]; 62 g ai/ha): 0
- Plant response rating, Wheat, Winter ([9]; 125 g ai/ha): 0
- Plant response rating, Wheat, Winter ([9]; 250 g ai/ha): 10
- Plant response rating (scale 0 to 100), Oilseed Rape [10, 22]: 0
- Plant response rating, Oilseed Rape ([10]; 31 g ai/ha): 0
- Plant response rating, Oilseed Rape ([10]; 62 g ai/ha): 0
- Plant response rating, Oilseed Rape ([10]; 125 g ai/ha): 10
- Plant response rating, Oilseed Rape ([10]; 250 g ai/ha): 40
- Plant response rating (scale 0 to 100), Lambsquarters [11, 22]: 0
- Plant response rating, Lambsquarters ([11]; 31 g ai/ha): 0
- Plant response rating, Lambsquarters ([11]; 62 g ai/ha): 0
- Plant response rating, Lambsquarters ([11]; 125 g ai/ha): 100
- Plant response rating, Lambsquarters ([11]; 250 g ai/ha): 100
- Plant response rating (scale 0 to 100), Kochia [12, 22]: 0
- Plant response rating, Kochia ([12]; 31 g ai/ha): 10
- Plant response rating, Kochia ([12]; 62 g ai/ha): 20
- Plant response rating, Kochia ([12]; 125 g ai/ha): 30
- Plant response rating, Kochia ([12]; 250 g ai/ha): 50
- Plant response rating (scale 0 to 100), Field Poppy [13, 22]: 20
- Plant response rating, Field Poppy ([13]; 31 g ai/ha): 100
- Plant response rating, Field Poppy ([13]; 62 g ai/ha): 100
- Plant response rating, Field Poppy ([13]; 125 g ai/ha): 90
- Plant response rating, Field Poppy ([13]; 250 g ai/ha): 100
- Plant response rating, Ryegrass, Italian ([14]; Postemergence, 16 g ai/ha): 0
- Ryegrass, Italian plant response rating ([14]; Postemergence, 31 g ai/ha): 0
- Ryegrass, Italian plant response rating ([14]; Postemergence, 125 g ai/ha): 10
- Ryegrass, Italian plant response rating ([14]; Postemergence, 250 g ai/ha): 15
- Ryegrass, Italian plant response rating ([14]; postemergence, 62 g ai/ha): 0
- Plant response rating, Field Poppy ([15]; Postemergence, 16 g ai/ha): 20
- Field Poppy plant response rating ([15]; Postemergence, 31 g ai/ha): 70
- Field Poppy plant response rating ([15]; Postemergence, 125 g ai/ha): 80
- Field Poppy plant response rating ([15]; Postemergence, 250 g ai/ha): 100
- Field Poppy plant response rating ([15]; postemergence, 62 g ai/ha): 75
- Plant response rating, Speedwell ([16]; Postemergence, 16 g ai/ha): 100
- Speedwell plant response rating ([16]; Postemergence, 31 g ai/ha): 100
- Speedwell plant response rating ([16]; Postemergence, 125 g ai/ha): 100
- Speedwell plant response rating ([16]; Postemergence, 250 g ai/ha): 100
- Speedwell plant response rating ([16]; postemergence, 62 g ai/ha): 100
- Plant response rating, Oilseed Rape ([17]; Postemergence, 16 g ai/ha): 20
- Oilseed Rape plant response rating ([17]; Postemergence, 31 g ai/ha): 40
- Oilseed Rape plant response rating ([17]; Postemergence, 125 g ai/ha): 60
- Oilseed Rape plant response rating ([17]; Postemergence, 250 g ai/ha): 80
- Oilseed Rape plant response rating ([17]; postemergence, 62 g ai/ha): 50
- Plant response rating (scale 0 to 100), Windgrass [18, 22]: 0
- Plant response rating, Windgrass ([18]; 31 g ai/ha): 0
- Plant response rating, Windgrass ([18]; 62 g ai/ha): 0
- Plant response rating, Windgrass ([18]; 125 g ai/ha): 0
- Plant response rating, Windgrass ([18]; 250 g ai/ha): 0
- Plant response rating (scale 0 to 100), Radish, Wild [19, 22]: 0
- Plant response rating, Radish, Wild ([19]; 31 g ai/ha): 0
- Plant response rating, Radish, Wild ([19]; 62 g ai/ha): 0
- Plant response rating, Radish, Wild ([19]; 125 g ai/ha): 100
- Plant response rating, Radish, Wild ([19]; 250 g ai/ha): 100
- Plant response rating, Canarygrass ([20]; Postemergence, 16 g ai/ha): 0
- Canarygrass plant response rating ([20]; Postemergence, 31 g ai/ha): 0
- Canarygrass plant response rating ([20]; Postemergence, 125 g ai/ha): 0
- Canarygrass plant response rating ([20]; Postemergence, 250 g ai/ha): 10
- Canarygrass plant response rating ([20]; postemergence, 62 g ai/ha): 0
- Plant response rating (scale 0 to 100), Chickweed [21, 22]: 0
- Plant response rating, Chickweed ([21]; 31 g ai/ha): 0
- Plant response rating, Chickweed ([21]; 62 g ai/ha): 10
- Plant response rating, Chickweed ([21]; 125 g ai/ha): 100
- Plant response rating, Chickweed ([21]; 250 g ai/ha): 100
